Results taken from paper PMC6945062, “Aβ43‐producing PS1 FAD mutants cause altered substrate interactions and respond to γ‐secretase modulation” (EMBO Reports, 2019).
Converted amounts (≈) assume the structure as drawn.

Legend:
[1] = system: PS1 WT or FAD mutant γ‐secretase; test: ELISA of Aβ species in conditioned media of HEK293/sw cells overexpressing WT or mutant PS1; assay type: cell-based, human
Description: For GSM treatments, the cells were grown to a confluence of 70–80%. Thereafter, medium was changed to fresh medium containing either DMSO vehicle control or GSM at the indicated concentration and the cells were incubated for 16–18 h before Aβ analysis of conditioned medium. […] Mouse N2a cells stably overexpressing swAPP were cultured in DMEM (high glucose) supplemented with 10% FCS and 1 mM sodium pyruvate and treated with GSM as described above.
(§1) Immunoblot analysis of PS1 and PS2, NCT, full‐length APP, C‐terminal APP fragments, secreted APPs, and Aβ was performed as described 52. To analyze GSM dose responses and determine IC50 values for Aβ42 inhibition, secreted Aβ species of HEK293/sw cells were analyzed by sandwich immunoassay (MSD) using SULFO‐tagged C‐terminal specific antibodies to Aβ38, Aβ40, and Aβ42 as described before 26 or, in case of H4/sw and N2a/sw cells by an Aβ42 AlphaLISA immunoassay kit according to the instructions of the supplier (PerkinElmer). Notch1 cleavage reporter assay was carried out as described 51. GSM‐mediated changes of secreted Aβ species in conditioned medium of PS1 WT or mutant expressing HEK293/sw cells were quantified by ELISA using end‐specific C‐terminal antibodies to Aβ38, Aβ40, Aβ42, and Aβ43 obtained from IBL as described previously 16. Mass spectrometry analysis of secreted Aβ species was performed after immunoprecipitation using antibody 4G8 as described previously 17. Individual Aβ species were analyzed by immunoblotting, using Tris–Bicine urea SDS–PAGE 53. To improve the separation of longer Aβ species (e.g., Aβ42/43), the separation gel was adjusted to 8% acrylamide and 8 M urea. Aβ37 and Aβ38 generated in cell‐free γ‐secretase assays were analyzed by sandwich immunoassay (MSD) as above using SULFO‐tagged species‐specific antibodies. AICD generation in these assays was analyzed by immunoblotting with Penta‐His antibody after sample separation on 10–20% Tris–Tricine gels (Invitrogen). Protein bands from immunoblots were quantified using the LAS‐4000 image reader (Fujifilm Life Science) and Multi‐Gauge V3.0 software for analysis.

[2] = system: C99–PS1 interaction (CHAPSO‐solubilized γ‐secretase); test: C99 V44Bpa photocrosslinking to PS1 in CHAPSO lysates; assay type: binding, human
Description: Bpa‐containing C99‐based γ‐secretase substrates were prepared as described previously 22. CHAPSO‐lysates were prepared from HEK293/sw cells co‐expressing either PS1 WT or PS1 mutants. Photocrosslinking was performed as described before 22. Crosslinking of the substrates was analyzed by immunoblotting using antibodies against the PS1 NTF as described 22. For substrate crosslinking experiments in the presence of RO7019009, the cell lysates were pre‐incubated for 30 min on ice with RO7019009 or DMSO vehicle before the addition of C99 V44Bpa and subsequent photocrosslinking.

[3] = system: γ‐secretase (total Aβ secretion in HEK293/sw cells); test: Immunoblot analysis of total Aβ in conditioned media of HEK293/sw cells; assay type: cell-based, human
Description: (§2) Single‐cell clones of HEK293 cells stably co‐expressing swAPP with WT and mutant PS1 constructs were cultured as described 50. For GSM treatments, the cells were grown to a confluence of 70–80%. Thereafter, medium was changed to fresh medium containing either DMSO vehicle control or GSM at the indicated concentration and the cells were incubated for 16–18 h before Aβ analysis of conditioned medium. Single‐cell clones of H4 overexpressing swAPP and HEK293‐based Notch1 reporter cell lines were cultured and treated with GSM as described 51. […]
(§3) Immunoblot analysis of PS1 and PS2, NCT, full‐length APP, C‐terminal APP fragments, secreted APPs, and Aβ was performed as described 52. To analyze GSM dose responses and determine IC50 values for Aβ42 inhibition, secreted Aβ species of HEK293/sw cells were analyzed by sandwich immunoassay (MSD) using SULFO‐tagged C‐terminal specific antibodies to Aβ38, Aβ40, and Aβ42 as described before 26 or, in case of H4/sw and N2a/sw cells by an Aβ42 AlphaLISA immunoassay kit according to the instructions of the supplier (PerkinElmer). […] GSM‐mediated changes of secreted Aβ species in conditioned medium of PS1 WT or mutant expressing HEK293/sw cells were quantified by ELISA using end‐specific C‐terminal antibodies to Aβ38, Aβ40, Aβ42, and Aβ43 obtained from IBL as described previously 16. […]

Notch1 cleavage = test: HEK293 cell‐based Notch1 luciferase reporter assay; details: Homo sapiens; HEK293‐based Notch1 luciferase reporter cell line; n = 2
Description: as §2, §3

PAMPA permeability = assay type: in vitro ADME
Excerpt: (§4) ^aLogD= logarithm of the octanol-water distribution coefficient at pH 7.4; ^bPAMPA: Parallel artificial membrane parallel assay; ^cCLmicr (h/m): human/mouse microsomal clearance

[4] = system: CHAPSO‐solubilized γ‐secretase; test: Cell‐free γ‐secretase assay with recombinant C100‐His6 (AICD generation); assay type: biochemical, human; details: 2.5 μM, WT and mutant PS1
Description: as §1, with “Mass spectrometry analysis of secreted Aβ species was performed after immunoprecipitation using antibody 4G8 as described previously 17.” left out, “To improve the separation of longer Aβ species (e.g., Aβ42/43), the separation gel was adjusted to 8% acrylamide and 8 M urea.” left out, “analysis. […]” for “analysis.”

[5] = system: PS1 WT or FAD mutant γ‐secretase; test: Mass spectrometry analysis of Aβ species from HEK293/sw cells overexpressing WT or mutant PS1; assay type: cell-based, human; details: all mutants, 500 nM
Description: as §2, §3

[6] = Human microsomal clearance; assay type: in vitro ADME; details: human microsomes, read-out: CLmicr human microsomal clearance
Excerpt: as §4

Solubility = assay type: physicochemical
Excerpt: Supplement EMBR-21-e47996-s003.docx, table 1: Table EV1. RO7019009 key physicochemical and pharmacokinetic properties predicting CNS drug-likeness | column: Solubility (µg/ml)

[7] = Mouse microsomal clearance; assay type: in vitro ADME; details: mouse microsomes, read-out: CLmicr mouse microsomal clearance
Excerpt: as §4

[8] = LogD (octanol-water distribution coefficient); assay type: physicochemical; details: pH 7.4
Excerpt: as §4

C99 V44Bpa [9] = test: photocrosslinking of C99 V44Bpa to PS1 NTF, immunoblot quantitation; details: box plot median, n = 7–11 biological replicates, read off a plot
C99 V44Bpa [10] = test: photocrosslinking of C99 V44Bpa to full-length PS1, immunoblot quantitation; details: box plot median, n = 7–11 biological replicates, read off a plot
[11] = PS1 L166P mutant, HEK293/sw cells
[12] = PS1 R278I and L166P mutants, HEK293/sw cells
[13] = PS1 R278I mutant, HEK293/sw cells
[14] = RO7019009 50 nM, parent: est. 1.0
[15] = RO7019009 500 nM, parent: est. 0.90
[16] = RO7019009 2500 nM, parent: est. 0.49

Molecule	other: V44 CL efficiency (Rel. to DMSO-treated), median (C99 V44Bpa [9]; [14])	other: V44 CL efficiency (Rel. to DMSO-treated), median (C99 V44Bpa [9]; [15])	other: V44 CL efficiency (Rel. to DMSO-treated), median (C99 V44Bpa [9]; [16])	other: V44 CL efficiency (Rel. to DMSO-treated), median (C99 V44Bpa [10]; RO7019009 50 nM)	other: V44 CL efficiency (Rel. to DMSO-treated), median (C99 V44Bpa [10]; RO7019009 500 nM)	other: V44 CL efficiency (Rel. to DMSO-treated), median (C99 V44Bpa [10]; RO7019009 2500 nM)	also measured
CC(C)CC[C@H](c1ccc(Cl)cc1)N1CC[C@@H](CC(=O)O)C[C@H]1c1ccc(C(F)(F)F)cc1 [GSM‐1]	–	–	–	–	–	–	Aβ43 production [1, 11]: only poorly, if at all; Aβ42 levels [1, 12]: remained unaffected; Aβ43 production [1, 13]: weakly reduced
Cc1nsc(N2C[C@H]3CC[C@@H](C2)[C@@H]3Nc2nc3c(-c4ccc(F)c(F)c4F)cccn3n2)n1 [RO7019009]	–	–	–	–	–	–	crosslinking of C99 V44Bpa to PS1 ([2]; PS1 Y256S and R278I mutants): unchanged crosslinking; crosslinking of C99 V44Bpa to PS1 NTF ([2]; WT PS1, increasing concentrations): reduced; total Aβ levels [3]: did not reduce; IC50 (Notch1 cleavage): > 10 µM; PAMPA (permeability) (PAMPA permeability): High; total AICD generation [4]: not or only marginally reduced; Aβ40 levels [5]: nearly complete reduction; microsomal CLint [6]: < 10 µL/min/mg; Aβ42 levels ([1]; PS1 L166P mutant, 50 to 500 nM): remained largely unaffected; Aβ42‐lowering response ([1]; PS1 V261F and R278I mutants, 50 to 500 nM): partially resistant; Aβ42 levels ([1]; V261F, R278I and L166P mutants, 500 nM): small, yet significant, reproducible reduction; generation of Aβ43 ([1]; all PS1 mutants, 50 to 500 nM): reduced the generation of Aβ43 for all mutants; solubility (Solubility): 3 µg/mL (≈ 6.36 µM); microsomal CLint [7]: < 10 µL/min/mg; logD [8]: 4
COc1cc(Nc2cc(Cc3ccc(Cl)cc3)cc(C(C)(C)O)c2)ccc1-n1cnc(C)c1 [RO‐02]	–	–	–	–	–	–	Aβ43 production [1, 11]: only poorly, if at all; Aβ42 levels [1, 12]: remained unaffected; Aβ43 production [1, 13]: weakly reduced
presenilin 1 (PS1) WT (from UniProt P49768) G382A	0.93	0.87	0.67	–	–	–	–
presenilin 1 (PS1) WT (from UniProt P49768) L166P	1	0.93	0.73	–	–	–	–
presenilin 1 (PS1) WT (from UniProt P49768) L435F	–	–	–	1	0.78	0.6	–
presenilin 1 (PS1) WT (from UniProt P49768) M292D	–	–	–	1.1	0.92	0.65	–
presenilin 1 (PS1) WT (from UniProt P49768) R278I	–	–	–	1	1	0.92	–
presenilin 1 (PS1) WT (from UniProt P49768) V261F	–	–	–	0.95	0.65	0.62	–
presenilin 1 (PS1) WT (from UniProt P49768) Y256S	1.1	0.88	0.95	–	–	–	–
